Measured values reported in PubChem BioAssay (NCI).
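96-well plates; 48 h exposure; 5 concentrations. Endpoints by linear interpolation between flanking doses. Not reached: highest tested concentration assigned. TGI: concentration producing complete growth inhibition.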 Where a SMILES comes first, the peptide text is derived from it. [ ]: non-standard residue; d: D form. The star is where a group is joined. Phe(4-NO2) = N[CH](Cc1ccc([N+](=O)[O-])cc1)C(=O)O; Cbz = O=C(OCc1ccccc1)*

Experiments:
Assay in all cases: inhibition of tumour cell growth, NCI panel, 48 h
A498 renal = tested on: A498 renal
EKVX NSCLC = tested on: EKVX NSCLC
M14 melanoma = tested on: M14 melanoma
MCF7 breast = tested on: MCF7 breast
MOLT-4 leukemia = tested on: MOLT-4 leukemia
NCI-H226 lung = tested on: NCI-H226 lung
OVCAR-8 ovarian = tested on: OVCAR-8 ovarian
SF-268 CNS = tested on: SF-268 CNS
SF-539 CNS = tested on: SF-539 CNS
SK-MEL-28 melanoma = tested on: SK-MEL-28 melanoma
SN12C renal = tested on: SN12C renal
TK-10 renal = tested on: TK-10 renal
UACC-62 melanoma = tested on: UACC-62 melanoma

Row | Structure (SMILES) | TGI (A498 renal) [µM] | TGI (EKVX NSCLC) [µM] | TGI (M14 melanoma) [µM] | TGI (MCF7 breast) [µM] | TGI (MOLT-4 leukemia) [µM] | TGI (NCI-H226 lung) [µM] | TGI (OVCAR-8 ovarian) [µM] | TGI (SF-268 CNS) [µM] | TGI (SF-539 CNS) [µM] | TGI (SK-MEL-28 melanoma) [µM] | TGI (SN12C renal) [µM] | TGI (TK-10 renal) [µM] | TGI (UACC-62 melanoma) [µM]
1 | Fc1nc(-c2c3ccccc3c3sc4ccccc4n23)nc(N2CCOCCOCCOCCOCC2)n1 | > 100 | > 100 | > 100 | > 100 | > 100 | > 100 | > 100 | > 100 | > 100 | > 100 | > 100 | > 100 | > 100
2 | CCOC(=O)CCC(NC(=O)OCc1ccccc1)C(=O)NC(CCC(=O)OCC)C(=O)NC(CCC(=O)OCC)C(=O)NC(CCC(=O)OCC)C(=O)NC(CCC(=O)OCC)C(=O)NC(Cc1ccc([N+](=O)[O-])cc1)C(=O)NC(CCC(=O)OCC)C(=O)NC(CCC(=O)OCC)C(=O)NC(CCC(=O)OCC)C(=O)NC(CCC(=O)OCC)C(=O)NC(CCC(=O)OCC)C(=O)OCC (stereo not given) (Cbz-E(OEt)E(OEt)E(OEt)E(OEt)E(OEt)[Phe(4-NO2)]E(OEt)E(OEt)E(OEt)E(OEt)E(OEt)-OEt; configuration not given here) | > 50 | > 50 | > 50 | > 50 | > 50 | > 50 |  | > 50 | > 50 | > 50 | > 50 | > 50 | > 50
3 | COC(=O)C1=CCC[C@H]2[C@@]1(COC(C)=O)CC[C@@H](C)[C@]2(C)CC(=O)c1ccoc1 | > 50 | > 50 | > 50 | > 50 | 31.8 | > 50 | > 50 | > 50 | 24.8 |  | > 50 | > 50 | 20.1
4 | CC(=O)O[C@H]1[C@@H](N2CCCCC2)C[C@H]2[C@@H]3CC=C4C[C@@H](N5CCCC5)CC[C@]4(C)[C@H]3CC[C@@]21C | > 100 | > 100 | 36.4 | > 100 | > 100 | > 100 | > 100 | > 100 | 34.5 | 48.9 | > 100 | > 100 | > 100
5 | O=[N+]([O-])/C(C(Cl)=C(Cl)Cl)=C(\NCc1ccccc1)Sc1ccccc1 | 62.2 | > 100 | > 100 | > 100 | > 100 | 98.3 | 32.8 | 57.4 | 38.9 | 36.8 | > 100 |  | > 100
6 | CCN1C(c2ccccc2)=CC(c2ccccc2)(C(Cl)(Cl)Cl)C=C1c1ccccc1 | 54.4 | 83 | 26.4 | > 100 | 61.8 | > 100 | > 100 | 86.3 | 37 | 67 | > 100 | > 100 | 
7 | COc1ccc(-c2c(C#N)c(N)nc(Sc3ccccc3N)c2C#N)cc1 | 19.6 | > 100 | > 100 | > 65.7 | > 100 | > 100 | 45.7 | 28.1 | 56.9 | > 100 | > 100 | 46 | > 44.5
8 | c1ccc([P+](Cc2ccc(C[P+](c3ccccc3)(c3ccccc3)c3ccccc3)s2)(c2ccccc2)c2ccccc2)cc1 | > 100 | > 100 | > 100 | > 100 | > 100 | > 100 | > 100 | > 100 | > 100 | > 100 | > 100 | > 100 | > 100
9 | O=C(N/N=C\c1ccc([N+](=O)[O-])cc1)Nc1ccc2ccccc2c1 | 56.8 | > 100 | > 100 | > 100 | > 100 | > 100 | > 100 | > 100 | 47.6 | > 100 | > 100 | 91.3 | > 100
10 | CSc1cc(Cl)c(C(=O)Nc2ccccc2)cc1S(=O)(=O)n1cc[nH]c1=O | > 100 | > 100 | > 100 | > 100 | > 100 |  | > 100 | > 100 | > 100 | > 100 | > 100 | > 100 | > 100
11 | C[C@]12CC/C(=N\OCCN3CCCC3)C=C1CCC1C2CC[C@@]2(C)C1CC[C@]2(C)O (stereo not given in full) | 4.7 | 34 | 37.1 | > 100 | 12.6 | 11.8 | 31.6 | 31.9 | 22.9 |  | 21.3 | 37 | 11.8
12 | CC1CCC2C(C(=O)O[C@H]3C4C=CO[C@@H](OC5OC(CO)C(O)C(O)C5O)C4[C@@]4(CO)O[C@@H]34)=CO[C@@H](OC3OC(CO)C(O)C(O)C3O)C12 (stereo not given in full) | > 10 | > 10 | > 10 | > 10 | > 10 | > 10 | > 10 | > 10 | > 10 | > 10 | > 10 | > 10 | > 10
13 | CSCCCNC(=O)c1csc(-c2csc(CCNC(=O)CNC(=O)OC(C)(C)C)n2)n1 | > 100 | > 100 | > 100 | > 100 | > 100 | > 100 | > 100 | > 100 | > 100 | > 100 | > 100 | > 100 | > 100
14 | CCOc1ccc(NC(=O)/C=C/c2ccco2)cc1 | > 100 | > 100 | > 100 | > 100 | > 100 | > 100 | > 100 | > 100 | > 100 | > 100 | > 100 | > 100 | > 100
15 | C=CCNC(=S)NC=C(C(N)=O)C(N)=O | 89.2 | > 100 | > 100 | > 100 | > 100 | > 100 | > 100 | > 100 | > 100 | > 100 | > 100 |  | > 100
16 | Clc1nc(NC23CC4CC(CC(C4)C2)C3)nc(NC23CC4CC(CC(C4)C2)C3)n1 | > 100 | > 100 | > 100 | > 100 | > 100 | > 100 | > 100 | > 100 | > 100 | > 100 | > 100 | > 100 | > 100
17 | COc1ccc2c(c1)C1Oc3ccccc3CC1CO2 (stereo not given) | 96.2 | > 100 | > 100 | > 100 | 52.9 | > 100 | > 100 | > 100 | > 100 |  | > 100 | > 100 | > 100

Row | Structure (SMILES) | TGI (A498 renal) [µM] | TGI (EKVX NSCLC) [µM] | TGI (M14 melanoma) [µM] | TGI (MCF7 breast) [µM] | TGI (MOLT-4 leukemia) [µM] | TGI (NCI-H226 lung) [µM] | TGI (OVCAR-8 ovarian) [µM] | TGI (SF-268 CNS) [µM] | TGI (SF-539 CNS) [µM] | TGI (SK-MEL-28 melanoma) [µM] | TGI (SN12C renal) [µM] | TGI (TK-10 renal) [µM] | TGI (UACC-62 melanoma) [µM]
18 | ON[C@@H]1C=C[C@H](n2cnc3c(NC4CC4)ncnc32)C1 | > 100 | > 100 | > 100 | > 100 | > 100 | > 100 | > 100 | > 100 | > 100 | > 100 | > 100 | > 100 | > 100
19 | CCc1cn(C2CC(CO)C(CO)S2)c(=O)[nH]c1=O (stereo not given) | > 100 | > 100 | > 100 | > 100 | > 100 | > 100 | > 100 | > 100 | > 100 | > 100 | > 100 | > 100 | > 100
20 | COc1cccc(-c2nc(N)c(C#N)c3c2CCS(=O)(=O)c2ccc(C)cc2-3)c1 | > 81.8 | > 100 | > 100 | > 100 | 87.1 | > 100 | > 100 | > 100 | > 100 | > 100 | > 100 | > 100 | > 100
21 | CCC(=O)NC(NNS(=O)(=O)c1ccc(C)cc1)(C(F)(F)F)C(F)(F)F | > 100 | > 100 | > 100 | > 100 | > 100 | > 100 | > 100 | > 100 | > 100 | 61.5 |  | > 100 | > 100
22 | NC(N)=NS(=O)(=O)c1ccc(NCc2cccc3c(=O)c4ccc(Cl)cc4oc23)cc1 | > 15.3 | > 21.9 | > 16.3 | > 25 | > 20.1 | > 25 | > 13.7 | 12.7 | > 13.1 | > 23.6 | > 14.2 | > 14.5 | > 24.1
23 | COc1ccccc1OC/C(N=Cc1cccnc1)=N/NC(=O)c1ccncc1 | > 100 | > 100 | > 100 | > 100 | > 100 | > 100 | > 100 | > 100 | > 100 | > 100 |  | > 100 | > 100
24 | NC(=S)N/N=C1\CCc2ccccc2C1 | > 100 | > 100 | > 100 | > 100 | > 100 | > 100 | > 100 | > 100 | > 100 | > 100 | > 100 | > 100 | > 100
25 | COc1ccc(-n2c(C)nc3ccc(NC4OC(COC(C)=O)C(OC(C)=O)C(OC(C)=O)C4OC(C)=O)cc3c2=O)cc1 (stereo not given) | > 100 | > 100 |  | > 100 | 80.8 | > 100 | > 100 | > 100 |  | > 100 | > 100 | > 100 | > 100
26 | CC(C)(C)C1CC[C@H](O)[C@H]([C@@H](O)CC2CC(=O)N(c3ccccc3)C(=O)C2)C1 (stereo not given in full) | > 100 | > 100 | > 100 | > 100 | > 100 | > 100 | > 100 | > 100 | > 100 | > 100 | > 100 | > 100 | 74.9
27 | COc1cc(C)cc2c1C(=O)C(NC(C)=O)=CC2=O | > 100 | > 100 | > 100 | > 100 | 88.7 | > 100 | > 100 | > 100 | > 100 | > 100 | > 100 | > 100 | > 100
28 | O=C(O)c1cc(-c2ccc3cc(O)c(O)cc3c2)ccc1O | > 12.5 |  | > 12.5 | > 12.5 | > 12.5 | > 12.5 | > 12.5 | > 12.5 | > 12.5 | > 12.5 | > 12.5 | > 12.5 | > 12.5
29 | COc1ccc(-n2c(C)nc3ccc(NC4OCC(OC(C)=O)C(OC(C)=O)C4OC(C)=O)cc3c2=O)cc1 (stereo not given) | > 100 | > 100 |  | > 100 | > 100 | > 100 | > 100 | > 100 |  | > 100 | > 100 | > 100 | > 100
30 | N#Cc1ccc(N=NN2CCCC2)cc1 | > 100 | > 100 | > 100 | > 100 | > 100 | > 100 | > 100 | > 100 | > 100 |  | > 100 | > 100 | > 100
31 | CC1=CC(=O)c2ccc3c4ccccc4n(C)c3c2C1=O | > 100 | > 62.7 | 64.4 | > 100 | > 72.8 | > 100 | > 100 | > 100 | > 100 | > 100 | > 100 | > 100 | 
32 | CN(C)Cc1cc(C(=O)/C=C/c2ccc(Cl)cc2Cl)cc(CN(C)C)c1O | 8.49 | 19.7 | 13.3 | 15.3 | 4.71 | 24 | 11 | 20 | 17 | 19.1 | 6.96 | 24.2 | 
33 | CCOC(=O)/C(=C\n1c(=O)sc2ccccc21)C(=O)c1ccccc1 | > 100 | > 100 | > 100 | > 100 | > 100 | > 100 | > 100 | > 100 | > 100 | > 100 | > 100 |  | > 100
